These are literature values, as cited in US20060217894A1, “Use of computationally derived protein structures of genetic polymorphisms in pharmacogenomics for drug design and clinical applications” (priority 1999, published 2006).

The data set deals with NS3 protease (Hepatitis C virus genotype 1b, UniProt P26663). The following applies: values obtained from literature (Ingallinella et al. 1998).
Sequence of NS3 protease (P26663 1027-1657, other chains not shown): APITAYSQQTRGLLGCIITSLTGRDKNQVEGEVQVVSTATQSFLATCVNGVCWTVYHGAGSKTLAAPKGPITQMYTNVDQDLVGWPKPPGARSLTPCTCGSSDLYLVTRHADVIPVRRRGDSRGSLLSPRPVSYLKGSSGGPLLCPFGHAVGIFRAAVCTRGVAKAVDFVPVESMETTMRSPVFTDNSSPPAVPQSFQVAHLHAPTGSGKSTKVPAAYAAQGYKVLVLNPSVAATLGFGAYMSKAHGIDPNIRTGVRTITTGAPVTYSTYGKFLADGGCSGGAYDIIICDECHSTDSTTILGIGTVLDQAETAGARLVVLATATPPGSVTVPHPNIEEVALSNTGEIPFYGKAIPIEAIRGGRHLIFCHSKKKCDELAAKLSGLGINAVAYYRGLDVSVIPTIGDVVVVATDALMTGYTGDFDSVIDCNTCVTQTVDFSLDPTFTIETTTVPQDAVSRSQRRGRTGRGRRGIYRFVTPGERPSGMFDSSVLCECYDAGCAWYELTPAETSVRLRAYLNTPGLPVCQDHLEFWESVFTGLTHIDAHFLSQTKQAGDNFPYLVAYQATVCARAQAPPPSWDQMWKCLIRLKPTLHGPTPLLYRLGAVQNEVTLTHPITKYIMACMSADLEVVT

One may read the IC50 as the concentration needed to halve the response being measured. In the case of “Ac-Asp^1-L-Glu^2-Leu^3-Ile^4-Cha^5-Cys^6-COO-”, the IC50 is 60 nM. As for “Ac-Asp^1-D-Glu^2-Leu^3-Ile^4-Cha^5-Cys^6-COO-”, the IC50 is 15 nM.
